Among the data in patent US6518270B1, “Heterocyclic compounds for inhibition of gastric acid secretion, processes for their preparation and pharmaceutical compositions thereof” (AstraZeneca AB, priority 1997, dated 2003) are IC50 values, retold here.

One may read the pIC50 as the negative decadic logarithm of the IC50, by convention in mol/L. Low values mean a large IC50, high ones a small IC50.

The target of the assay is T1, H+,K+-ATPase.
T1 construct: from tissue
The assay can be described thus: Determination of H+,K+-ATPase activity. It is filed as biochemical. Conditions: membrane vesicles, 15 min at +37° C., pH 7.4, 10 mM KCl, 2 mM ATP; release of inorganic phosphate. As to the method: Determination of H^+,K^+-ATPase Activity
Membrane vesicles (2.5 to 5 μg) were incubated for 15 min at +37° C. in 18 mM Pipes/Tris buffer pH 7.4 containing 2 mM MgCl2, 10 mM KCl and 2 mM ATP. The ATPase activity was estimated as release of inorganic phosphate from ATP, as described by LeBel et al. (1978) Anal. Biochem. 85, 86-89.

Molecules are shown by their SMILES. pIC50: −log10 of the molar value.

T1 sequence (P20648 whole entry): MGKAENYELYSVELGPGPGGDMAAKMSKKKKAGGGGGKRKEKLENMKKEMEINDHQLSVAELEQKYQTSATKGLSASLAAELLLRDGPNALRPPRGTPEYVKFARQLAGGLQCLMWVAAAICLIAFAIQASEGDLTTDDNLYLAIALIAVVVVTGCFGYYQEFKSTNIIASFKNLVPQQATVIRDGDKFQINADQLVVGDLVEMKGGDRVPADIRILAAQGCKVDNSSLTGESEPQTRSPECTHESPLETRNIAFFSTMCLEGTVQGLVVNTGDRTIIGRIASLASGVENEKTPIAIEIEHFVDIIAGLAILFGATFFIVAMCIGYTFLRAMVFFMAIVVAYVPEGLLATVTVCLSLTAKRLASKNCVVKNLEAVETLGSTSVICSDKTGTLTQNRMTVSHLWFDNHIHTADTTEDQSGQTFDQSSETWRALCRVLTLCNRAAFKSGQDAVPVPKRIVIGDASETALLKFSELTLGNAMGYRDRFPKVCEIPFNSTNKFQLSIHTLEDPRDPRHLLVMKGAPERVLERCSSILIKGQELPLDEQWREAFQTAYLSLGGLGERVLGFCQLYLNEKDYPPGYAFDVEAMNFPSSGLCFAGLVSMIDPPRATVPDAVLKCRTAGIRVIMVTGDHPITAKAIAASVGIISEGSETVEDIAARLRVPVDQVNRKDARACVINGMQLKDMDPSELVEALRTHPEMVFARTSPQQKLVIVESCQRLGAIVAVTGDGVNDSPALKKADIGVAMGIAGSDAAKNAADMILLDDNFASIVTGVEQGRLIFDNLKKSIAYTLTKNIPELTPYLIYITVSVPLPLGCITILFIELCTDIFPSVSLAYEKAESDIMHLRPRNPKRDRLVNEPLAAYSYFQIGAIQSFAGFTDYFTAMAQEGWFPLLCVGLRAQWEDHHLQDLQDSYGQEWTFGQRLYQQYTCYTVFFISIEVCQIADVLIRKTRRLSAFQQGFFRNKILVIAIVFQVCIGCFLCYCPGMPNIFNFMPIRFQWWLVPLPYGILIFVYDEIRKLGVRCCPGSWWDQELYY
T1 sequence (P51164 whole entry partner): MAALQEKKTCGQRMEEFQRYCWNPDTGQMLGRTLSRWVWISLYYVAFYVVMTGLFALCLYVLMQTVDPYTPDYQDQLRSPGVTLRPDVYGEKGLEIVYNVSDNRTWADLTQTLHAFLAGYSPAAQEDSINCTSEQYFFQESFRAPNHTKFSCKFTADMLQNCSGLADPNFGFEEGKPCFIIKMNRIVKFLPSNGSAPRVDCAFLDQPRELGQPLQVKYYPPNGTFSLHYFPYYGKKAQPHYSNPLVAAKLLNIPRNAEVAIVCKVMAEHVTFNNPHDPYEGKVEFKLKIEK

With `Cc1cccc(C)c1CNc1nccn2c(C)c(C)nc12` [Example 1, 2,3-dimethyl-8-(2,6-dimethylbenzylamino)imidazo [1,2-a]pyrazine], the pIC50 was 6.80. With `Cc1cccc(C)c1COc1nccn2c(C)c(C)nc12` [Example 2, 2,3-dimethyl-8-(2,6-dimethylbenzyloxy)imidazo[1,2-a]pyrazine] the figure was 5.56.
